Reference: ChEMBL document CHEMBL3046125, “Design and synthesis of niflumic acid-based N-acylhydrazone derivatives as novel anti-inflammatory and analgesic agents” (2013)

tested on: Mus musculus; assay: Analgesic activity in NMRI Mus musculus (mouse) assessed as inhibition of acetic acid-induced abdominal writhing at 10 mg/kg administered 30 min prior to acetic acid injection; assay type: functional; conditions: Abdomen

Row | Structure (SMILES) | inhibition in vivo at 10 mg/kg [%]
1 | COc1ccc(/C=N/NC(=O)c2cccnc2Nc2cccc(C(F)(F)F)c2)cc1 | 97.4
2 | O=C(N/N=C/c1cccnc1)c1cccnc1Nc1cccc(C(F)(F)F)c1 | 51.4
3 | O=C(N/N=C/c1ccncc1)c1cccnc1Nc1cccc(C(F)(F)F)c1 | 85.6
4 | COc1ccc(/C=N/NC(=O)c2cccnc2Nc2cccc(C(F)(F)F)c2)cc1OC | 80.7
5 | O=C(N/N=C/c1cccc(Cl)c1)c1cccnc1Nc1cccc(C(F)(F)F)c1 | 61.9
6 | CNc1ncccc1C(=O)N/N=C/c1ccncc1 | 90.6
7 | O=C(N/N=C/c1ccccc1)c1cccnc1Nc1cccc(C(F)(F)F)c1 | 66.2
8 | O=C(O)c1cccnc1Nc1cccc(C(F)(F)F)c1 [NIFLUMIC ACID] | 68.3

tested on: Rattus norvegicus; assay: Anti-inflammatory activity in Wistar Rattus norvegicus (rat) assessed as inhibition of carrageenan-induced paw edema at 10 mg/kg, ip measured after 2 hr; assay type: functional; conditions: route intraperitoneal

Row | Structure (SMILES) | inhibition in vivo at 10 mg/kg [%]
9 | COc1ccc(/C=N/NC(=O)c2cccnc2Nc2cccc(C(F)(F)F)c2)cc1 | 42.4
10 | O=C(N/N=C/c1cccnc1)c1cccnc1Nc1cccc(C(F)(F)F)c1 | 62.4
11 | O=C(N/N=C/c1ccncc1)c1cccnc1Nc1cccc(C(F)(F)F)c1 | 65.2
12 | CNc1ncccc1C(=O)N/N=C/c1cccnc1 | 43.7
13 | COc1ccc(/C=N/NC(=O)c2cccnc2Nc2cccc(C(F)(F)F)c2)cc1OC | 49
14 | O=C(N/N=C/c1ccc(O)c(O)c1)c1cccnc1Nc1cccc(C(F)(F)F)c1 | 46.9
15 | CN(C)c1ccc(/C=N/NC(=O)c2cccnc2Nc2cccc(C(F)(F)F)c2)cc1 | 51.4
16 | O=C(N/N=C/c1cccc(Cl)c1)c1cccnc1Nc1cccc(C(F)(F)F)c1 | 63.5
17 | O=C(N/N=C/c1cccc(F)c1)c1cccnc1Nc1cccc(C(F)(F)F)c1 | 52.8
18 | O=C(N/N=C/c1cccc(O)c1)c1cccnc1Nc1cccc(C(F)(F)F)c1 | 65.4
19 | O=C(N/N=C/c1ccc(F)cc1)c1cccnc1Nc1cccc(C(F)(F)F)c1 | 41.2
20 | COc1ccc(/C=N/NC(=O)c2cccnc2Nc2cccc(C(F)(F)F)c2)c(OC)c1 | 44.7
21 | CNc1ncccc1C(=O)N/N=C/c1ccc(Cl)cc1 | 54.1
22 | CNc1ncccc1C(=O)N/N=C/c1ccccc1 | 47.2
23 | O=C(N/N=C/c1ccc(Cl)cc1)c1cccnc1Nc1cccc(C(F)(F)F)c1 | 52.8
24 | CNc1ncccc1C(=O)N/N=C/c1ccncc1 | 60.4
25 | O=C(N/N=C/c1ccccc1)c1cccnc1Nc1cccc(C(F)(F)F)c1 | 36.8
26 | COc1cc(/C=N/NC(=O)c2cccnc2Nc2cccc(C(F)(F)F)c2)cc(OC)c1OC | 40.6
27 | COc1cccc(/C=N/NC(=O)c2cccnc2Nc2cccc(C(F)(F)F)c2)c1 | 49.7
28 | O=C(O)c1cccnc1Nc1cccc(C(F)(F)F)c1 [NIFLUMIC ACID] | 70.1
29 | O=C(N/N=C/c1ccc(O)cc1)c1cccnc1Nc1cccc(C(F)(F)F)c1 | 68
30 | CNc1ncccc1C(=O)N/N=C/c1cccc(Cl)c1 | 61.7
31 | CNc1ncccc1C(=O)N/N=C/c1cccc(OC)c1 | 51.5

tested on: Rattus norvegicus; assay: Anti-inflammatory activity in Wistar Rattus norvegicus (rat) assessed as inhibition of carrageenan-induced paw edema at 10 mg/kg, ip measured after 1 hr; assay type: functional; conditions: route intraperitoneal

Row | Structure (SMILES) | inhibition in vivo at 10 mg/kg [%]
32 | COc1ccc(/C=N/NC(=O)c2cccnc2Nc2cccc(C(F)(F)F)c2)cc1 | 59.4
33 | O=C(N/N=C/c1cccnc1)c1cccnc1Nc1cccc(C(F)(F)F)c1 | 76.1
34 | O=C(N/N=C/c1ccncc1)c1cccnc1Nc1cccc(C(F)(F)F)c1 | 70.2
35 | CNc1ncccc1C(=O)N/N=C/c1cccnc1 | 61.1
36 | COc1ccc(/C=N/NC(=O)c2cccnc2Nc2cccc(C(F)(F)F)c2)cc1OC | 70
37 | O=C(N/N=C/c1ccc(O)c(O)c1)c1cccnc1Nc1cccc(C(F)(F)F)c1 | 50.8
38 | CN(C)c1ccc(/C=N/NC(=O)c2cccnc2Nc2cccc(C(F)(F)F)c2)cc1 | 63.5
39 | O=C(N/N=C/c1cccc(Cl)c1)c1cccnc1Nc1cccc(C(F)(F)F)c1 | 76.7
40 | O=C(N/N=C/c1cccc(F)c1)c1cccnc1Nc1cccc(C(F)(F)F)c1 | 51.5
41 | O=C(N/N=C/c1cccc(O)c1)c1cccnc1Nc1cccc(C(F)(F)F)c1 | 63.8
42 | O=C(N/N=C/c1ccc(F)cc1)c1cccnc1Nc1cccc(C(F)(F)F)c1 | 43.2
43 | COc1ccc(/C=N/NC(=O)c2cccnc2Nc2cccc(C(F)(F)F)c2)c(OC)c1 | 55.7
44 | CNc1ncccc1C(=O)N/N=C/c1ccc(Cl)cc1 | 54.7
45 | CNc1ncccc1C(=O)N/N=C/c1ccccc1 | 67.6
46 | O=C(N/N=C/c1ccc(Cl)cc1)c1cccnc1Nc1cccc(C(F)(F)F)c1 | 67.2
47 | CNc1ncccc1C(=O)N/N=C/c1ccncc1 | 80.4
48 | O=C(N/N=C/c1ccccc1)c1cccnc1Nc1cccc(C(F)(F)F)c1 | 53.9
49 | COc1cc(/C=N/NC(=O)c2cccnc2Nc2cccc(C(F)(F)F)c2)cc(OC)c1OC | 54.4
50 | COc1cccc(/C=N/NC(=O)c2cccnc2Nc2cccc(C(F)(F)F)c2)c1 | 58.8
51 | O=C(O)c1cccnc1Nc1cccc(C(F)(F)F)c1 [NIFLUMIC ACID] | 70.4
52 | O=C(N/N=C/c1ccc(O)cc1)c1cccnc1Nc1cccc(C(F)(F)F)c1 | 70.5
53 | CNc1ncccc1C(=O)N/N=C/c1cccc(Cl)c1 | 68.6
54 | CNc1ncccc1C(=O)N/N=C/c1cccc(OC)c1 | 64.6

tested on: Rattus norvegicus; assay: Anti-inflammatory activity in Wistar Rattus norvegicus (rat) assessed as inhibition of carrageenan-induced paw edema at 10 mg/kg, ip measured after 4 hr; assay type: functional; conditions: route intraperitoneal

Row | Structure (SMILES) | inhibition in vivo at 10 mg/kg [%]
55 | COc1ccc(/C=N/NC(=O)c2cccnc2Nc2cccc(C(F)(F)F)c2)cc1 | 14
56 | O=C(N/N=C/c1cccnc1)c1cccnc1Nc1cccc(C(F)(F)F)c1 | 36
57 | O=C(N/N=C/c1ccncc1)c1cccnc1Nc1cccc(C(F)(F)F)c1 | 45.9
58 | CNc1ncccc1C(=O)N/N=C/c1cccnc1 | 13.8
59 | COc1ccc(/C=N/NC(=O)c2cccnc2Nc2cccc(C(F)(F)F)c2)cc1OC | 52.9
60 | O=C(N/N=C/c1ccc(O)c(O)c1)c1cccnc1Nc1cccc(C(F)(F)F)c1 | 21.1
61 | CN(C)c1ccc(/C=N/NC(=O)c2cccnc2Nc2cccc(C(F)(F)F)c2)cc1 | 28.2
62 | O=C(N/N=C/c1cccc(Cl)c1)c1cccnc1Nc1cccc(C(F)(F)F)c1 | 40.4
63 | O=C(N/N=C/c1cccc(F)c1)c1cccnc1Nc1cccc(C(F)(F)F)c1 | 29.8
64 | O=C(N/N=C/c1cccc(O)c1)c1cccnc1Nc1cccc(C(F)(F)F)c1 | 35.8
65 | O=C(N/N=C/c1ccc(F)cc1)c1cccnc1Nc1cccc(C(F)(F)F)c1 | 36.5
66 | COc1ccc(/C=N/NC(=O)c2cccnc2Nc2cccc(C(F)(F)F)c2)c(OC)c1 | 19.8
67 | CNc1ncccc1C(=O)N/N=C/c1ccc(Cl)cc1 | 18.2
68 | CNc1ncccc1C(=O)N/N=C/c1ccccc1 | 14.8
69 | O=C(N/N=C/c1ccc(Cl)cc1)c1cccnc1Nc1cccc(C(F)(F)F)c1 | 43.7
70 | CNc1ncccc1C(=O)N/N=C/c1ccncc1 | 15.5
71 | O=C(N/N=C/c1ccccc1)c1cccnc1Nc1cccc(C(F)(F)F)c1 | 31
72 | COc1cc(/C=N/NC(=O)c2cccnc2Nc2cccc(C(F)(F)F)c2)cc(OC)c1OC | 28.6
73 | COc1cccc(/C=N/NC(=O)c2cccnc2Nc2cccc(C(F)(F)F)c2)c1 | 14.9
74 | O=C(O)c1cccnc1Nc1cccc(C(F)(F)F)c1 [NIFLUMIC ACID] | 52
75 | O=C(N/N=C/c1ccc(O)cc1)c1cccnc1Nc1cccc(C(F)(F)F)c1 | 61.6
76 | CNc1ncccc1C(=O)N/N=C/c1cccc(Cl)c1 | 40.4
77 | CNc1ncccc1C(=O)N/N=C/c1cccc(OC)c1 | 42.2

tested on: Rattus norvegicus; assay: Anti-inflammatory activity in Wistar Rattus norvegicus (rat) assessed as inhibition of carrageenan-induced paw edema at 10 mg/kg, ip measured after 3 hr; assay type: functional; conditions: route intraperitoneal

Row | Structure (SMILES) | inhibition in vivo at 10 mg/kg [%]
78 | COc1ccc(/C=N/NC(=O)c2cccnc2Nc2cccc(C(F)(F)F)c2)cc1 | 26.5
79 | O=C(N/N=C/c1cccnc1)c1cccnc1Nc1cccc(C(F)(F)F)c1 | 52.4
80 | O=C(N/N=C/c1ccncc1)c1cccnc1Nc1cccc(C(F)(F)F)c1 | 54.9
81 | CNc1ncccc1C(=O)N/N=C/c1cccnc1 | 27.7
82 | COc1ccc(/C=N/NC(=O)c2cccnc2Nc2cccc(C(F)(F)F)c2)cc1OC | 44
83 | O=C(N/N=C/c1ccc(O)c(O)c1)c1cccnc1Nc1cccc(C(F)(F)F)c1 | 38.2
84 | CN(C)c1ccc(/C=N/NC(=O)c2cccnc2Nc2cccc(C(F)(F)F)c2)cc1 | 39.5
85 | O=C(N/N=C/c1cccc(Cl)c1)c1cccnc1Nc1cccc(C(F)(F)F)c1 | 55.2
86 | O=C(N/N=C/c1cccc(F)c1)c1cccnc1Nc1cccc(C(F)(F)F)c1 | 37
87 | O=C(N/N=C/c1cccc(O)c1)c1cccnc1Nc1cccc(C(F)(F)F)c1 | 49
88 | O=C(N/N=C/c1ccc(F)cc1)c1cccnc1Nc1cccc(C(F)(F)F)c1 | 41.3
89 | COc1ccc(/C=N/NC(=O)c2cccnc2Nc2cccc(C(F)(F)F)c2)c(OC)c1 | 24.1
90 | CNc1ncccc1C(=O)N/N=C/c1ccc(Cl)cc1 | 22.4
91 | CNc1ncccc1C(=O)N/N=C/c1ccccc1 | 22.7
92 | O=C(N/N=C/c1ccc(Cl)cc1)c1cccnc1Nc1cccc(C(F)(F)F)c1 | 48.5
93 | CNc1ncccc1C(=O)N/N=C/c1ccncc1 | 55
94 | O=C(N/N=C/c1ccccc1)c1cccnc1Nc1cccc(C(F)(F)F)c1 | 21.2
95 | COc1cc(/C=N/NC(=O)c2cccnc2Nc2cccc(C(F)(F)F)c2)cc(OC)c1OC | 28.5
96 | COc1cccc(/C=N/NC(=O)c2cccnc2Nc2cccc(C(F)(F)F)c2)c1 | 30.3
97 | O=C(O)c1cccnc1Nc1cccc(C(F)(F)F)c1 [NIFLUMIC ACID] | 70.6
98 | O=C(N/N=C/c1ccc(O)cc1)c1cccnc1Nc1cccc(C(F)(F)F)c1 | 59.5
99 | CNc1ncccc1C(=O)N/N=C/c1cccc(Cl)c1 | 39.5
100 | CNc1ncccc1C(=O)N/N=C/c1cccc(OC)c1 | 49.5

tested on: Rattus norvegicus; assay: Anti-inflammatory activity in Wistar Rattus norvegicus (rat) assessed as inhibition of carrageenan-induced paw edema at 10 mg/kg, ip measured after 30 min; assay type: functional; conditions: 0.5 h, route intraperitoneal

Row | Structure (SMILES) | inhibition in vivo at 10 mg/kg [%]
101 | COc1ccc(/C=N/NC(=O)c2cccnc2Nc2cccc(C(F)(F)F)c2)cc1 | 50.4
102 | O=C(N/N=C/c1cccnc1)c1cccnc1Nc1cccc(C(F)(F)F)c1 | 59.1
103 | O=C(N/N=C/c1ccncc1)c1cccnc1Nc1cccc(C(F)(F)F)c1 | 68.1
104 | CNc1ncccc1C(=O)N/N=C/c1cccnc1 | 66.3
105 | COc1ccc(/C=N/NC(=O)c2cccnc2Nc2cccc(C(F)(F)F)c2)cc1OC | 60.1
106 | O=C(N/N=C/c1ccc(O)c(O)c1)c1cccnc1Nc1cccc(C(F)(F)F)c1 | 51.4
107 | CN(C)c1ccc(/C=N/NC(=O)c2cccnc2Nc2cccc(C(F)(F)F)c2)cc1 | 61.3
108 | O=C(N/N=C/c1cccc(Cl)c1)c1cccnc1Nc1cccc(C(F)(F)F)c1 | 77.8
109 | O=C(N/N=C/c1cccc(F)c1)c1cccnc1Nc1cccc(C(F)(F)F)c1 | 58.2
110 | O=C(N/N=C/c1cccc(O)c1)c1cccnc1Nc1cccc(C(F)(F)F)c1 | 67.5
111 | O=C(N/N=C/c1ccc(F)cc1)c1cccnc1Nc1cccc(C(F)(F)F)c1 | 33.9
112 | COc1ccc(/C=N/NC(=O)c2cccnc2Nc2cccc(C(F)(F)F)c2)c(OC)c1 | 37.8
113 | CNc1ncccc1C(=O)N/N=C/c1ccc(Cl)cc1 | 46.5
114 | CNc1ncccc1C(=O)N/N=C/c1ccccc1 | 56.5
115 | O=C(N/N=C/c1ccc(Cl)cc1)c1cccnc1Nc1cccc(C(F)(F)F)c1 | 52.4
116 | CNc1ncccc1C(=O)N/N=C/c1ccncc1 | 63.2
117 | O=C(N/N=C/c1ccccc1)c1cccnc1Nc1cccc(C(F)(F)F)c1 | 60.4
118 | COc1cc(/C=N/NC(=O)c2cccnc2Nc2cccc(C(F)(F)F)c2)cc(OC)c1OC | 55.9
119 | COc1cccc(/C=N/NC(=O)c2cccnc2Nc2cccc(C(F)(F)F)c2)c1 | 52.8
120 | O=C(O)c1cccnc1Nc1cccc(C(F)(F)F)c1 [NIFLUMIC ACID] | 64.1
121 | O=C(N/N=C/c1ccc(O)cc1)c1cccnc1Nc1cccc(C(F)(F)F)c1 | 59.2
122 | CNc1ncccc1C(=O)N/N=C/c1cccc(Cl)c1 | 67.1
123 | CNc1ncccc1C(=O)N/N=C/c1cccc(OC)c1 | 56.1
